Target: SARS-CoV-2 spike S1 RBD / ACE2 interaction (S-RBD protein binding to ACE2) (Severe acute respiratory syndrome coronavirus 2, UniProt P0DTC2)
Assay: biochemical

N=C(N)c1ccc(/N=N/Nc2ccc(C(=N)N)cc2)cc1 [DIZE]
IC50: 20.6 µM
